Reference: ChEMBL document CHEMBL3885881, “DrugMatrix”

Organism: Rattus norvegicus
Test: DrugMatrix - Regimen: Daily Repeat
Format: toxicity, organism-based, Sprague-Dawley
Design: regimen Daily Repeat, gender Male, age 6-8 weeks
Details: in vivo, po, route oral GAVAGE, vehicle .5 % CMC; for ABSOLUTE BASOPHIL / ABSOLUTE EOSINOPHIL / ABSOLUTE LYMPHOCYTE / ABSOLUTE MONOCYTE / ABSOLUTE SEGMENTED NEUTROPHIL / BASOPHIL / EOSINOPHIL / ERYTHROCYTE COUNT / HEMATOCRIT / HEMOGLOBIN / LEUKOCYTE COUNT / LYMPHOCYTE / MEAN CORPUSCULAR HEMOGLOBIN / MEAN CORPUSCULAR HEMOGLOBIN CONCENTRATION / MEAN CORPUSCULAR VOLUME / MONOCYTE / NEUTROPHIL / NUCLEATED RED BLOOD CELLS / PLATELET COUNT: tissue Blood; for ALANINE AMINOTRANSFERASE / ALBUMIN / ALKALINE PHOSPHATASE / ASPARTATE AMINOTRANSFERASE / BLOOD UREA NITROGEN / CARBON DIOXIDE / CHLORIDE / CHOLESTEROL / CREATINE PHOSPHOKINASE / CREATININE / GLUCOSE / LACTATE DEHYDROGENASE / LIPASE / PHOSPHORUS / POTASSIUM / SODIUM / TOTAL BILIRUBIN / TOTAL PROTEIN / URIC ACID: tissue Plasma
[1] = 88 mg/kg, 72 h, dose level Low, time 3 day
[2] = 88 mg/kg, 120 h, dose level Low, time 5 day
[3] = 1500 mg/kg, 72 h, dose level High, time 3 day
[4] = 1500 mg/kg, 120 h, dose level High, time 5 day

## NC(=O)c1cnccn1 [PYRAZINAMIDE]
[1]
  ABSOLUTE BASOPHIL: 0 CELLS/uL
  ABSOLUTE EOSINOPHIL: 30.67 CELLS/uL
  ABSOLUTE LYMPHOCYTE: 12250.33 CELLS/uL
  ABSOLUTE MONOCYTE: 470.67 CELLS/uL
  ABSOLUTE SEGMENTED NEUTROPHIL: 1315 CELLS/uL
  BASOPHIL: 0%
  EOSINOPHIL: 0.33%
  ERYTHROCYTE COUNT: 5.55 x10E6/uL
  HEMATOCRIT: 35.93%
  HEMOGLOBIN: 13.4 G/DL
  LEUKOCYTE COUNT: 14.07 x10E3/uL
  LYMPHOCYTE: 87%
  MEAN CORPUSCULAR HEMOGLOBIN: 24.2 pg
  MEAN CORPUSCULAR HEMOGLOBIN CONCENTRATION: 37.27 G/DL
  MEAN CORPUSCULAR VOLUME: 64.83 fL
  MONOCYTE: 3%
  NEUTROPHIL: 9.67%
  NUCLEATED RED BLOOD CELLS: 0 /100WBC
  PLATELET COUNT: 1204.33 x10E3/uL
  ALANINE AMINOTRANSFERASE: 44.33 u/L
  ALBUMIN: 4.73 G/DL
  ALKALINE PHOSPHATASE: 375 u/L
  ASPARTATE AMINOTRANSFERASE: 85.33 u/L
  BLOOD UREA NITROGEN: 14.67 mg/dL
  CARBON DIOXIDE: 22.67 mmol/L
  CHLORIDE: 102.67 MEQ/L
  CHOLESTEROL: 74.33 mg/dL
  CREATINE PHOSPHOKINASE: 282.33 u/L
  CREATININE: 0.22 mg/dL
  GLUCOSE: 147 mg/dL
  LACTATE DEHYDROGENASE: 427 u/L
  LIPASE: 10 u/L
  PHOSPHORUS: 12.4 mg/dL
  POTASSIUM: 7.05 MEQ/L
  SODIUM: 145.67 MEQ/L
  TOTAL BILIRUBIN: 0.27 mg/dL
  TOTAL PROTEIN: 5.97 G/DL
  URIC ACID: 2.43 mg/dL
[2]
  ABSOLUTE BASOPHIL: 0 CELLS/uL
  ABSOLUTE EOSINOPHIL: 154 CELLS/uL
  ABSOLUTE LYMPHOCYTE: 11236 CELLS/uL
  ABSOLUTE MONOCYTE: 491 CELLS/uL
  ABSOLUTE SEGMENTED NEUTROPHIL: 1385.67 CELLS/uL
  BASOPHIL: 0%
  EOSINOPHIL: 1%
  ERYTHROCYTE COUNT: 5.75 x10E6/uL
  HEMATOCRIT: 35.9%
  HEMOGLOBIN: 13.43 G/DL
  LEUKOCYTE COUNT: 13.27 x10E3/uL
  LYMPHOCYTE: 85%
  MEAN CORPUSCULAR HEMOGLOBIN: 23.4 pg
  MEAN CORPUSCULAR HEMOGLOBIN CONCENTRATION: 37.47 G/DL
  MEAN CORPUSCULAR VOLUME: 62.43 fL
  MONOCYTE: 3.67%
  NEUTROPHIL: 10.33%
  NUCLEATED RED BLOOD CELLS: 0.33 /100WBC
  PLATELET COUNT: 1159.33 x10E3/uL
  ALANINE AMINOTRANSFERASE: 36 u/L
  ALBUMIN: 4.27 G/DL
  ALKALINE PHOSPHATASE: 325.33 u/L
  ASPARTATE AMINOTRANSFERASE: 95.33 u/L
  BLOOD UREA NITROGEN: 20 mg/dL
  CARBON DIOXIDE: 24 mmol/L
  CHLORIDE: 108.33 MEQ/L
  CHOLESTEROL: 66 mg/dL
  CREATINE PHOSPHOKINASE: 516 u/L
  CREATININE: 0.22 mg/dL
  GLUCOSE: 133.67 mg/dL
  LACTATE DEHYDROGENASE: 846.33 u/L
  LIPASE: 9 u/L
  PHOSPHORUS: 11.63 mg/dL
  POTASSIUM: 5.99 MEQ/L
  SODIUM: 145.83 MEQ/L
  TOTAL BILIRUBIN: 0.13 mg/dL
  TOTAL PROTEIN: 6.07 G/DL
  URIC ACID: 1.4 mg/dL
[3]
  ABSOLUTE BASOPHIL: 0 CELLS/uL
  ABSOLUTE EOSINOPHIL: 133 CELLS/uL
  ABSOLUTE LYMPHOCYTE: 8872.33 CELLS/uL
  ABSOLUTE MONOCYTE: 166.33 CELLS/uL
  ABSOLUTE SEGMENTED NEUTROPHIL: 1061.67 CELLS/uL
  BASOPHIL: 0%
  EOSINOPHIL: 1.33%
  ERYTHROCYTE COUNT: 5.4 x10E6/uL
  HEMATOCRIT: 35.87%
  HEMOGLOBIN: 13.37 G/DL
  LEUKOCYTE COUNT: 10.23 x10E3/uL
  LYMPHOCYTE: 86.67%
  MEAN CORPUSCULAR HEMOGLOBIN: 24.8 pg
  MEAN CORPUSCULAR HEMOGLOBIN CONCENTRATION: 37.33 G/DL
  MEAN CORPUSCULAR VOLUME: 66.4 fL
  MONOCYTE: 1.67%
  NEUTROPHIL: 10.33%
  NUCLEATED RED BLOOD CELLS: 0 /100WBC
  PLATELET COUNT: 1418.67 x10E3/uL
  ALANINE AMINOTRANSFERASE: 48.33 u/L
  ALBUMIN: 4.13 G/DL
  ALKALINE PHOSPHATASE: 315.67 u/L
  ASPARTATE AMINOTRANSFERASE: 85.67 u/L
  BLOOD UREA NITROGEN: 16.67 mg/dL
  CARBON DIOXIDE: 28 mmol/L
  CHLORIDE: 103.33 MEQ/L
  CHOLESTEROL: 73 mg/dL
  CREATINE PHOSPHOKINASE: 136.33 u/L
  CREATININE: 0.15 mg/dL
  GLUCOSE: 153 mg/dL
  LACTATE DEHYDROGENASE: 76 u/L
  LIPASE: 9 u/L
  PHOSPHORUS: 10.47 mg/dL
  POTASSIUM: 5.73 MEQ/L
  SODIUM: 146 MEQ/L
  TOTAL BILIRUBIN: 0.23 mg/dL
  TOTAL PROTEIN: 5.77 G/DL
  URIC ACID: 1.47 mg/dL
[4]
  ABSOLUTE BASOPHIL: 0 CELLS/uL
  ABSOLUTE EOSINOPHIL: 88 CELLS/uL
  ABSOLUTE LYMPHOCYTE: 11940 CELLS/uL
  ABSOLUTE MONOCYTE: 519 CELLS/uL
  ABSOLUTE SEGMENTED NEUTROPHIL: 1353 CELLS/uL
  BASOPHIL: 0%
  EOSINOPHIL: 0.67%
  ERYTHROCYTE COUNT: 6.59 x10E6/uL
  HEMATOCRIT: 40.1%
  HEMOGLOBIN: 14.83 G/DL
  LEUKOCYTE COUNT: 13.9 x10E3/uL
  LYMPHOCYTE: 86%
  MEAN CORPUSCULAR HEMOGLOBIN: 22.5 pg
  MEAN CORPUSCULAR HEMOGLOBIN CONCENTRATION: 37.03 G/DL
  MEAN CORPUSCULAR VOLUME: 60.83 fL
  MONOCYTE: 3.67%
  NEUTROPHIL: 9.67%
  NUCLEATED RED BLOOD CELLS: 0 /100WBC
  PLATELET COUNT: 1142.67 x10E3/uL
  ALANINE AMINOTRANSFERASE: 56.33 u/L
  ALBUMIN: 4.53 G/DL
  ALKALINE PHOSPHATASE: 308 u/L
  ASPARTATE AMINOTRANSFERASE: 93.33 u/L
  BLOOD UREA NITROGEN: 16.67 mg/dL
  CARBON DIOXIDE: 25.33 mmol/L
  CHLORIDE: 104.5 MEQ/L
  CHOLESTEROL: 70.67 mg/dL
  CREATINE PHOSPHOKINASE: 254.33 u/L
  CREATININE: 0.17 mg/dL
  GLUCOSE: 185.67 mg/dL
  LACTATE DEHYDROGENASE: 177.33 u/L
  LIPASE: 9 u/L
  PHOSPHORUS: 12.47 mg/dL
  POTASSIUM: 5.72 MEQ/L
  SODIUM: 147.8 MEQ/L
  TOTAL BILIRUBIN: 0.2 mg/dL
  TOTAL PROTEIN: 6.07 G/DL
  URIC ACID: 1.37 mg/dL
